Measured values as given in patent publication US4438029A, “Synthetic peptides” (Research Corporation, priority 1979, dated 1984).
Ends that are not written are not given here.

Tested on: guinea pig ileum strips
Experiment: Contraction of guinea pig ileum strips in Tyrode's solution
Assay type: cell-based
Details: Table I; per 10 ml of solution; full contraction; guinea pig ileum strips with Tyrode's solution
Protocol: ^b Amount of peptide per 10 ml of solution to contract fully guinea
pig ileum strips with Tyrode's solution.
^b Amount of peptide per 10 ml of Tyrode's solution to fully contract
a guinea pig ileum strip.

| Substance | Activity (amount of peptide per 10 ml of solution to contract fully guinea pig ileum strips) |
| --- | --- |
| ASHLGLAR [No. 5, L-Alanyl-L-seryl-L-histidyl-L-leucyl-glycyl-L-leucyl-L-alanyl-L-arginine] | 5 to 8 nmol |
| Ac-ASHLGLAR [No. 6, CH3 CO--Ala-Ser-His-Leu-Gly-Leu-Ala-Arg] | 8 to 12 nmol |

Same assay, conditions: Table II; per 10 ml of Tyrode's solution; full contraction; guinea pig ileum strip

| Substance | Ileum Activity (amount of peptide per 10 ml of Tyrode's solution to fully contract a guinea pig ileum strip) |
| --- | --- |
| Ac-AAALGLAR [CH3 CO--Ala-Ala-Ala-Leu-Gly-Leu-Ala-Arg] | 7 to 13 nmol |
| Ac-ALGLAR [CH3 CO--Ala-Leu-Gly-Leu-Ala-Arg] | 19 to 38 nmol |
| Ac-HLGLAR [CH3 CO--His-Leu-Gly-Leu-Ala-Arg] | 8 to 17 nmol |
| Ac-LGLAR [CH3 CO--Leu-Gly-Leu-Ala-Arg] | 36 to 45 nmol |
